Measured values reported in patent US11485728B2, “Small molecules for the treatment of autoimmune diseases and cancer” (Athos Therapeutics, Inc., priority 2020, dated 2022).

Columns and labels:
[1] = molecular target: T1, CYP2C9 (Homo sapiens, UniProt P11712); test: CYP-direct inhibition, CYP2C9; format: in vitro ADME
T1 construct: from tissue; host or cells: pooled human liver microsomes
Experimental: (§1) Many drugs inhibit cytochrome P450 enzymes to cause clinically significant changes in the pharmacokinetics of other drugs. In vitro cytochrome P450 inhibition, can provide crucial information in evaluating potential clinical drug-drug interactions and is useful for focusing in vivo tests to areas of concern. The cytochrome P450 inhibition assay was developed by preparing a working cocktail solution consisting of six probe substrates 10 μM ethoxy-resorufin (CYP1A2), 100 μM rosiglitazone (CYP2C8), 50 μM diclofenac (CYP2C9), 300 μM S-mephenytoin (CYP2C19), 50 μM dextromethorphan (CYP2D6), and 20 μM midazolam (CYP3A4). A mixture solution consists of 140 uL of 0.286 mg/mL of pooled human liver microsome working solution and 20 uL working solutions of test articles, standard control inhibitors, or positive control placebo and 20 uL of substrate cocktail mixture working solution was prepared. The mixture solution was pre-warm in a gentle shaking bath at 37±2° C. for 5 minutes. The enzymatic reaction started by adding 20 uL of NRS working solution to the mixture solution and incubated for 10 minutes at 37±2° C. To stop the reaction, an addition of 400 μL cold stop solution (acetonitrile containing 50 ng/mL Tolbutamide as an internal standard (I.Std.) was added to the mixture solution. The final concentration of test article, inhibitors, substrates, and cofactors are noted in Table 0.1 below. Two individual samples were prepared for each test compound. The extracted samples were vortexed and then centrifuged at 4500 rpm for 7 minutes using Eppendorf Centrifuge 5910R. 200 uL of supernatant was diluting with 200 uL of 50% Methanol into 96-DW plate for LC/MS/MS analysis
(§2) Concentration-response plots are used to determine the effects of an inhibitor on an enzymatic reaction. A typical concentration-response plot provides fractional activity (Y axis) is plotted as a function of log inhibitor concentration (X axis). The data are fitted using a standard Sigmoidal dose-response equation which is also called a […] logistic equation. The concentration of compound that results in 50% inhibition of maximal activity is termed as the IC50 (inhibitor concentration yielding 50% inhibition). IC50 value is calculated using Prism GraphPad software, version 9. […].
(§3) Cytochrome P450 inhibition of a drug is a key factor in determining pharmacokinetic drug-drug interactions. The objective of this study was to evaluate the inhibition potential of G9a inhibitors on six (6) major human cytochrome P450 enzymes, including CYP1A2, CYP2C8, CYP2C9, CYP2C19, CYP2D6, and CYP3A4. Inhibition was determined by using a substrate cocktail and analyzing the rate of specific metabolites formation. The cytochrome P450 inhibition assay was developed using a cocktail consisting of six (6) probe substrates ethoxy-resorufin (CYP1A2), rosiglitazone (CYP2C8), diclofenac (CYP2C9), S-mephenytoin (CYP2C19), dextromethorphan (CYP2D6), and midazolam (CYP3A4). The cocktail was incubated in human liver microsome with NADPH regenerating system (NRS) in a shaking bath at 37±2° C. The formation of specific metabolites was monitored by LC/MS/MS. Test compound was added to the cocktail-liver microsome mixture at varying concentrations and its effect on cytochrome P450 activity was determined by analyzing the rate of specific metabolite formation. The percent inhibition was calculated and plotted with reference to the concentration, and the IC50 value for inhibition was derived by fitting the data with a using log(inhibitor) vs. normalized response with variable slope least squares fit by Graphpad Prism® software. […].

[2] = molecular target: T2, CYP2C8 (Homo sapiens, UniProt P10632); test: CYP-direct inhibition, CYP2C8; format: in vitro ADME
T2 construct: from tissue; host or cells: pooled human liver microsomes
T2 sequence (P10632 1-490): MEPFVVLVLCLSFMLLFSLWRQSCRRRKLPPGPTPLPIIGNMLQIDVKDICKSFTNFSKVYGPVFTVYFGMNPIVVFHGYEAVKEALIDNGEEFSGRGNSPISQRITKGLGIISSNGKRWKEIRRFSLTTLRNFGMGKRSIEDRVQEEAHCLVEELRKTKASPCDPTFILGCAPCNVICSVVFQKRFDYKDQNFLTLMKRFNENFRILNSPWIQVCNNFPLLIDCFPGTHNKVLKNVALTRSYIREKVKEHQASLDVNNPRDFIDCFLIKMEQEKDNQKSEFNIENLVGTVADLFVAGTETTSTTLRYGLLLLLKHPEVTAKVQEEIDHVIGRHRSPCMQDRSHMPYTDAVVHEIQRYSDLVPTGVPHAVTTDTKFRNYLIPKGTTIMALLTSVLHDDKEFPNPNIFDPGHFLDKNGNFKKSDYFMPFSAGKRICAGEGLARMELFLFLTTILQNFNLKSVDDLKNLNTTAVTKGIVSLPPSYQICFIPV
Experimental: as §1, §2, §3

[3] = PAMPA permeability; details: for Papp at 5 h, 20 μM: PAMPA, 5 hours at RT
[4] = molecular target: T3, CYP2D6 (Homo sapiens, UniProt P10635); test: CYP-direct inhibition, CYP2D6; format: in vitro ADME; details: human liver microsome; substrate dextromethorphan; read-out: IC50 CYP-2D6
T3 construct: from tissue; host or cells: pooled human liver microsomes
Experimental: as §1, §2, §3

[5] = PAMPA permeability Classification, 20 μM donor
[6] = Permeability, Pe, 20 μM donor in PBS/MeOH 90:10

T3 sequence (P10635 whole entry): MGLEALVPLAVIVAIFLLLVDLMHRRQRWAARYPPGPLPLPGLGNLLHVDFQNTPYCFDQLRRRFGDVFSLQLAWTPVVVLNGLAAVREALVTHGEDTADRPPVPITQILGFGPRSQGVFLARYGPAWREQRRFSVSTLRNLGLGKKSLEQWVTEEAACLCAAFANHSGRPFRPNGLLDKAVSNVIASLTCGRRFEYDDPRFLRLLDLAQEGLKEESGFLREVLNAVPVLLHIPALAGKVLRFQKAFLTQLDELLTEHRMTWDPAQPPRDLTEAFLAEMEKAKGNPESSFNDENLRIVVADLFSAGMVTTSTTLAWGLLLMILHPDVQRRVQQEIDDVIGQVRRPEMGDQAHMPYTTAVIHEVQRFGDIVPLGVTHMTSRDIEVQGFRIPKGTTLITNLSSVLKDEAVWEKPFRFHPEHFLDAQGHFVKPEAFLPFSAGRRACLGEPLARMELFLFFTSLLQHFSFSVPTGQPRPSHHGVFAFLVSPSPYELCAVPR
T1 sequence (P11712 whole entry): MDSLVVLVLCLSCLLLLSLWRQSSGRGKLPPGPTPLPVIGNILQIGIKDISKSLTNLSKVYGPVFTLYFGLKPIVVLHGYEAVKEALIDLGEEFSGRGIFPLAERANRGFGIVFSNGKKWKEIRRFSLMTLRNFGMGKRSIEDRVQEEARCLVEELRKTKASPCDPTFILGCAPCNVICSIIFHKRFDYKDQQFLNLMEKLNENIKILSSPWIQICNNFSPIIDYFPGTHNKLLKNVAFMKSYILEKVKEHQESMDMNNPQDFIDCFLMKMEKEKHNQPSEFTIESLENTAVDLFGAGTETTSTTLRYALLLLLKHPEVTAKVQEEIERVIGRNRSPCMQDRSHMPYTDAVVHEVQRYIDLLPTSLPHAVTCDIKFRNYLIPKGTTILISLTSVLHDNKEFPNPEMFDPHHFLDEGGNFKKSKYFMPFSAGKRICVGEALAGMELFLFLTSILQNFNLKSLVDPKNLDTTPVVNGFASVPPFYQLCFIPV

SMILES | IC50 [1] [µM] | IC50 [2] [µM] | Papp at 5 h, 20 μM [3, 5] [×10⁻⁶ cm/s] | Papp at 5 h, 20 μM [3, 6] [×10⁻⁶ cm/s] | IC50 [4] [µM] | permeability / oral absorption potential (in words) [3]
COc1cc2c(Nc3ccncc3)nc(-n3ccnc3)nc2cc1OCCCN1CCCC1 [Compound 130, 2-(1H-imidazol-1-yl)-6-methoxy-N-(pyridin-4-yl)-7-(3-(pyrrolidin-1-yl)propoxy)quinazolin-4-amine] | 65.5 | 4.66 | < 0.055 | 0.0129 | 4.88 | –
COc1cc2c(NC3CCN(C(C)C)CC3)nc(C#N)nc2cc1OCCCN1CCCC1 [Compound 235, 4-((1-isopropylpiperidin-4-yl)amino)-6-methoxy-7-(3-(pyrrolidin-1-yl)propoxy)quinazoline-2-carbonitrile] | > 100 | > 100 | < 0.055 | 0.0046 | > 100 | –
COc1cc2c(NC3COC3)nc(N3CCC(F)(F)CC3)nc2cc1OCCCN1CCCC1 [Compound 11, 2-(4,4-difluoropiperidin-1-yl)-6-methoxy-N-(oxetan-3-yl)-7-(3-(pyrrolidin-1-yl)propoxy)quinazolin-4-amine] | > 100 | 16 | 0.055 to 1.5 | 0.458 | 29.5 | –
COc1cc2c(NC3CCN(C(C)C)CC3)nc(-n3ccnc3)nc2cc1OCCCN1CCCC1 [Compound 156, 2-(1H-imidazol-1-yl)-N-(1-isopropylpiperidin-4-yl)-6-methoxy-7-(3-(pyrrolidin-1-yl)propoxy)quinazolin-4-amine] | > 100 | > 100 | < 0.055 | 0.00225 | 4.72 | –
COc1cc2c(Nc3ccncc3)nc(N3CCC(F)(F)CC3)nc2cc1OCCCN1CCCC1 [Compound 7, 2-(4,4-difluoropiperidin-1-yl)-6-methoxy-N-(pyridin-4-yl)-7-(3-(pyrrolidin-1-yl)propoxy)quinazolin-4-amine] | > 100 | 75.7 | 0.055 to 1.5 | 0.584 | 12 | –
COc1cc2c(NC3CCOCC3)nc(N3CCCN(C)CC3)nc2cc1OCCCN1CCCC1 [Compound 237, 6-methoxy-2-(4-methyl-1,4-diazepan-1-yl)-7-(3-(pyrrolidin-1-yl)propoxy)-N-(tetrahydro-2H-pyran-4-yl)quinazolin-4-amine] | > 100 | 95.5 | < 0.055 | 0.00431 | 86.2 | –
COc1cc2c(N[C@H]3CCCNC3)nc(N3CCCC3)nc2cc1OCCCN1CCCC1 [Compound 158, (S)-6-methoxy-N-(piperidin-3-yl)-2-(pyrrolidin-1-yl)-7-(3-(pyrrolidin-1-yl)propoxy)quinazolin-4-amine] | > 100 | > 100 | < 0.055 | 0.00453 | 65.6 | –
COc1cc2c(NC3CCS(=O)(=O)CC3)nc(N3CCCC3)nc2cc1OCCCN1CCCC1 [Compound 80, 4-((6-methoxy-2-(pyrrolidin-1-yl)-7-(3-(pyrrolidin-1-yl)propoxy)quinazolin-4-yl)amino)tetrahydro-2H-thiopyran 1,1-dioxide] | > 100 | 23.4 | < 0.055 | 0.00298 | 43 | –
COc1cc2c(NC3CCS(=O)(=O)CC3)nc(N3CCS(=O)(=O)CC3)nc2cc1OCCCN1CCCC1 [Compound 103, 4-(4-((1,1-dioxidotetrahydro-2H-thiopyran-4-yl)amino)-6-methoxy-7-(3-(pyrrolidin-1-yl)propoxy)quinazolin-2-yl)thiomorpholine 1,1-dioxide] | > 100 | > 100 | < 0.055 | 0.0119 | > 100 | –
COc1cc2c(NC3CCOCC3)nc(N3CCC3)nc2cc1OCCCN1CCCC1 [Compound 174, 2-(azetidin-1-yl)-6-methoxy-7-(3-(pyrrolidin-1-yl)propoxy)-N-(tetrahydro-2H-pyran-4-yl)quinazolin-4-amine] | > 100 | > 100 | 0.055 to 1.5 | 0.0754 | 23 | –
COc1cc2c(NC3CCS(=O)(=O)CC3)nc(N3CCOCC3)nc2cc1OCCCN1CCCC1 [Compound 102, 4-((6-methoxy-2-morpholino-7-(3-(pyrrolidin-1-yl)propoxy)quinazolin-4-yl)amino)tetrahydro-2H-thiopyran 1,1-dioxide] | > 100 | 60.6 | < 0.055 | 0.000648 | 29 | –
COc1cc2c(N[C@@H]3CCCNC3)nc(N3CCCC3)nc2cc1OCCCN1CCCC1 [Compound 159, (R)-6-methoxy-N-(piperidin-3-yl)-2-(pyrrolidin-1-yl)-7-(3-(pyrrolidin-1-yl)propoxy)quinazolin-4-amine] | > 100 | > 100 | < 0.055 | 0.0227 | 50.9 | –
COCCNc1nc(N2CCC(F)(F)CC2)nc2cc(OCCCN3CCCC3)c(OC)cc12 [Compound 4, 2-(4,4-difluoropiperidin-1-yl)-6-methoxy-N-(2-methoxyethyl)-7-(3-(pyrrolidin-1-yl)propoxy)quinazolin-4-amine] | > 100 | 27.4 | > 1.5 | 1.77 | 13.3 | very high permeability
COc1cc2c(NC3CCOCC3)nc(N3CCC(F)(F)CC3)nc2cc1OCCCN1CCCC1 [Compound 2, 2-(4,4-difluoropiperidin-1-yl)-6-methoxy-7-(3-(pyrrolidin-1-yl)propoxy)-N-(tetrahydro-2H-pyran-4-yl)quinazolin-4-amine] | > 100 | 20.4 | > 1.5 | 6.38 | 17.6 | very high permeability
